Active and inactive are the calls of the source. The rule behind the calls is not given here.

The values that follow come from ChEMBL document CHEMBL5584353, “Design, Synthesis, and Biological Evaluation of Potent EZH2/LSD1 Dual Inhibitors for Prostate Cancer” (J Med Chem, 2024).

In series [1] the test system is CWR22R. The series is described as follows: Growth inhibition of human 22Rv1 cells incubated for 6 to 7 days by MTS assay. The series is classed as functional. As to conditions: time 6-7 day. On the technique in general: Formazan colour is commonly taken as a measure of viable cells.
In series [2] the test system is PC-3. The series is described as follows: Growth inhibition of human PC-3 cells incubated for 6 to 7 days by MTS assay. The series is classed as functional. The following applies: time 6-7 day.
For series [3], the system named is LNCaP. The series is described as follows: Growth inhibition of human LNCaP cells incubated for 6 to 7 days by MTS assay. It counts as functional. The following applies: time 6-7 day.
In series [4] the test system is CWR22R. The series is described as follows: Synergistic growth inhibition of human 22Rv1 cells incubated for 6 to 7 days in presence of ORY1001 by MTS assay. It counts as functional. The following applies: time 6-7 day.
For series [5], the system named is CWR22R. In words: Synergistic growth inhibition of human 22Rv1 cells incubated for 6 to 7 days in presence of TCP by MTS assay. It counts as functional. As to conditions: time 6-7 day.
The test system of series [6] is PC-3. In words: Synergistic growth inhibition of human PC-3 cells incubated for 6 to 7 days in presence of ORY1001 by MTS assay. The series is classed as functional. The following applies: time 6-7 day.
In series [7] the test system is PC-3. In words: Synergistic growth inhibition of human PC-3 cells incubated for 6 to 7 days in presence of TCP by MTS assay. The series is classed as functional. As to conditions: time 6-7 day.
In series [8] the test system is LNCaP. The series is described as follows: Synergistic growth inhibition of human LNCaP cells incubated for 6 to 7 days in presence of ORY1001 by MTS assay. It counts as functional. As to conditions: time 6-7 day.
In series [9] the test system is LNCaP. In words: Synergistic growth inhibition of human LNCaP cells incubated for 6 to 7 days in presence of TCP by MTS assay. As to conditions: time 6-7 day. It counts as functional.
Series [10] deals with CWR22R. The series is described as follows: Induction of apoptosis in human 22Rv1 cells at 10 uM incubated for 5 days by Annexin V-FITC/PI staining based flow cytometric analysis (reference value: 8.97 %). The series is classed as functional. As to conditions: time 5 day. Background: A flow cytometer gives signals particle by particle.
Series [11] relates to CWR22R. The series is described as follows: Synergistic antitumor activity against human 22Rv1 cells xenografted in BALB/c mouse assessed as tumor growth inhibition at 65 mg/kg,ip administrated daily for 31 days in presence of TCP relative to control. As to conditions: 22Rv1, 744 h, read-out: TGI. For orientation: A xenograft is tissue or cells of one species grown in another, often human tumour cells in immunodeficient mice.

Series [12] in a line: Toxicity in BALB/c mouse xenografted with human 22Rv1 cells assessed as change in body weight at 65 mg/kg,ip administrated daily for 31 days. The series is classed as organism-based, CWR22R. The following applies: in vivo, 744 h, time 31 day.
A short description of series [13]: Toxicity in BALB/c mouse xenografted with human 22Rv1 cells assessed as change in body weight at 65 mg/kg,ip administrated daily for 31 days in presence of TCP. It counts as organism-based, CWR22R. The following applies: in vivo, 744 h, time 31 day.
Series [14] concerns the target T1, Lysine-specific histone demethylase 1A (Homo sapiens, UniProt O60341). In words: Inhibition of LSD1 in human LNCaP cells assessed as upregulation of H3K9me2 expression at 10 uM incubated for 24 hrs by Western blotting analysis. It counts as cell-based.
Series [15] concerns the target T1, Lysine-specific histone demethylase 1A. In words: Inhibition of LSD1 in human 22Rv1 cells assessed as upregulation of H3K9me2 expression at 10 uM incubated for 24 hrs by Western blotting analysis. It counts as cell-based.
For series [16], the target named is Histone-lysine N-methyltransferase EZH2 (Homo sapiens) (UniProt Q15910). The series is described as follows: Inhibition of EZH2 in human 22Rv1 cells assessed as downregulation of H3K27me3 expression at 10 uM incubated for 24 hrs by Western blotting analysis. The series is classed as cell-based.
For series [17] the target is unchanged. The series is described as follows: Inhibition of EZH2 in human LNCaP cells assessed as downregulation of H3K27me3 expression at 10 uM incubated for 24 hrs by Western blotting analysis. The series is classed as cell-based.

Chain of Histone-lysine N-methyltransferase EZH2 (Homo sapiens) (Q15910 whole entry, looked up): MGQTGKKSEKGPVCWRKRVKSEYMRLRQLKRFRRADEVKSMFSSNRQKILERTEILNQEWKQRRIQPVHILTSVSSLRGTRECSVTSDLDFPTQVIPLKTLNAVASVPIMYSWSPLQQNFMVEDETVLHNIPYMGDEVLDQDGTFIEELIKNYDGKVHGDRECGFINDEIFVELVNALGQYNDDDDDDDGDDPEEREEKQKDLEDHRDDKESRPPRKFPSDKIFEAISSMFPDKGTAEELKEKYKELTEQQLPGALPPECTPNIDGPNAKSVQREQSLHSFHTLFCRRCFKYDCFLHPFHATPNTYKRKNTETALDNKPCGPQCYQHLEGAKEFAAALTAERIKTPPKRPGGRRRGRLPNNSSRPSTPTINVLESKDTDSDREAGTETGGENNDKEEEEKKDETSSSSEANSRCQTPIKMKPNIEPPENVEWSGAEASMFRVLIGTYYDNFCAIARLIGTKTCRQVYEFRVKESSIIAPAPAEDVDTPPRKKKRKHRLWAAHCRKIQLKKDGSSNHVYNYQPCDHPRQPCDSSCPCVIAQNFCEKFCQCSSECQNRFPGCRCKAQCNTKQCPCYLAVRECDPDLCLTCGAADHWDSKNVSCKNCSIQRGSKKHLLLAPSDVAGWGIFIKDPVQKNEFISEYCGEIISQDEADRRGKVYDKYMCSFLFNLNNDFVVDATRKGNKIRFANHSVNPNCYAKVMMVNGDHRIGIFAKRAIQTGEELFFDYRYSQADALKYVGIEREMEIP

For the molecule `CCN(c1cc(-c2ccc(CN3CCOCC3)cc2)cc(C(=O)NCc2c(C)cc(C)[nH]c2=O)c1C)C1CCOCC1` [TAZEMETOSTAT], the GI50 was 51.9 µM in series [1]; > 30 µM in series [2]; 19.5 µM in [3]; > 30 µM in series [4]; > 30 µM in series [5]; > 30 µM in [6]. The GI50 in series [7] is > 30 µM; in [8] it was 12 µM; in [9], 13 µM. Besides, the Activity in series [10] was 17.88%; in series [12], “Non-Toxic”; in [13] it was “Non-Toxic”. Also, the inhibition in vivo at 65 mg/kg in series [11] was found to be 28.8%.
Consider `CCN(c1cc(-c2ccc([C@@H]3C[C@H]3NC(=O)OC(C)(C)C)cc2)cc(C(=O)NCc2c(C)c(Br)c(C)[nH]c2=O)c1C)C1CCOCC1` (racemic), for which the GI50 was > 30 µM in [1], 5.08 µM in [2] and 24.1 µM in series [3]. Moreover, the inhibition entry in series [14] and in series [15] was “Active” each time. Further, the inhibition result in series [16] and in [17] was “inactive” each time.

By GI50 is commonly meant the concentration that inhibits growth by half.
